Measurements reported in patent publication US9642869B2, “Boronic acid derivatives and therapeutic uses thereof” (Rempex Pharmaceuticals, Inc., priority 2013, dated 2017).
Like-named read-outs stand apart in the source and are kept apart here.

Experiments:
SHV-5 ec308 [1] = experiment: Aztreonam potentiation (MPC@4); format: cell-based; conditions: minimum BLI concentration inhibiting growth with 4 μg/mL aztreonam
ECL1002 [2] = format: cell-based; conditions: for TIG MPC4 ECL1002: minimum BLI concentration inhibiting growth with tigemonam at 4 μg/mL
TEM-10 ec302 [3] = experiment: Aztreonam potentiation (MPC@4); format: cell-based; conditions: minimum BLI concentration inhibiting growth with 4 μg/mL aztreonam
KPC-2 KP1004 = experiment: Aztreonam potentiation (MPC@4); format: cell-based; conditions: minimum BLI concentration inhibiting growth with 4 μg/mL aztreonam
CTX-M-14 KP1005 [4] = experiment: Aztreonam potentiation (MPC@4); format: cell-based; conditions: minimum BLI concentration inhibiting growth with 4 μg/mL aztreonam
CTX-M-14 KP1005 [5] = format: cell-based
KPC-2 = KPC-2 (Klebsiella pneumoniae, UniProt Q9F663); experiment: Inhibition of nitrocefin cleavage by purified enzyme (Ki); format: biochemical; conditions: nitrocefin reporter substrate, 10 min preincubation; read-out: Ki (KPC-2, NCF)
Chain of KPC-2 (Q9F663 25-293 limits assumed): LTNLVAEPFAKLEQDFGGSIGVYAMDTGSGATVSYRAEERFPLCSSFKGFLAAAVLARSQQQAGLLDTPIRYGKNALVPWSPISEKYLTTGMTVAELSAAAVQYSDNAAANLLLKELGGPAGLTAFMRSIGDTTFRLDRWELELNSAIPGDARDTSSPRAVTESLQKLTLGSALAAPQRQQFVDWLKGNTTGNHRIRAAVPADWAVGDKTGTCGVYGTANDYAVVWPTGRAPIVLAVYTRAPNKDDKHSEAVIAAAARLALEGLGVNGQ
Outline: (§1)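 Purified enzyme was preincubated with a range of inhibitor concentrations in reaction buffer for 10 min at room temperature. Nitrocefin was then added and its cleavage followed at 490 nm every 10 sec for 10 min.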

SHV-12 = SHV-12 (Klebsiella pneumoniae, UniProt P0AD64, E235K/G234S/L31Q); experiment: as above; format: biochemical
Chain of SHV-12 (P0AD64 22-286 L31Q/G234S/E235K): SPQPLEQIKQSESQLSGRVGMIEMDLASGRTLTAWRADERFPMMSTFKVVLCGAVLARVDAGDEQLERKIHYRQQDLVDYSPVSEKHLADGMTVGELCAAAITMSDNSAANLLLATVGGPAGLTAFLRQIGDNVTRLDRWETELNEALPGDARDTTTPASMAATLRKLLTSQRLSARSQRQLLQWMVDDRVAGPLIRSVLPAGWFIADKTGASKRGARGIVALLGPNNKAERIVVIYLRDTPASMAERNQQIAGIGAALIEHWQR
Outline: as §1

OXA-48 = OXA-48 (Klebsiella pneumoniae, UniProt Q6XEC0); experiment: as above; format: biochemical; conditions: nitrocefin reporter substrate, 10 min preincubation; read-out: Ki (OXA-48, NCF)
Chain of OXA-48 (Q6XEC0 23-265 limits assumed): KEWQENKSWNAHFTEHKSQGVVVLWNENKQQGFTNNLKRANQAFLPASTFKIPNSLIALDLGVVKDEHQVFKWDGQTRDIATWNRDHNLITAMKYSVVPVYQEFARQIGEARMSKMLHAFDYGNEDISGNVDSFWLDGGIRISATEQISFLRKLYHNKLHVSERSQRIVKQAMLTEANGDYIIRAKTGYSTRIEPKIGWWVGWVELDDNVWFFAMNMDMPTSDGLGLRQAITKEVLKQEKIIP
Outline: as §1

P99 = P99 (Enterobacter cloacae, UniProt P05364); experiment: as above; format: biochemical; conditions: nitrocefin reporter substrate, 10 min preincubation; read-out: Ki (P99, NCF)
Chain of P99 (P05364 21-381): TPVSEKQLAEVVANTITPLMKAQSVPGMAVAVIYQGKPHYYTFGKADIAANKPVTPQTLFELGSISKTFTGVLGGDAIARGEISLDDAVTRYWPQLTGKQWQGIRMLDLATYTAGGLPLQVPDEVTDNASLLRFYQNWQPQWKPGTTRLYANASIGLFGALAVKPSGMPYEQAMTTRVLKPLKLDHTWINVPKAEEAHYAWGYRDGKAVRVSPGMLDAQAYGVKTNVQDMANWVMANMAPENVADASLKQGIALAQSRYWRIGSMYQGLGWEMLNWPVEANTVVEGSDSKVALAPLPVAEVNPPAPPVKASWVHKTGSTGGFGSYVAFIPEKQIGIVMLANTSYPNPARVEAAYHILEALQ
Outline: as §1

CTX-M-14 = CTX-M-14 (Escherichia coli, UniProt Q9L5C7); experiment: as above; format: biochemical; conditions: nitrocefin reporter substrate, 10 min preincubation; read-out: Ki (CTX-M-14, NCF)
Chain of CTX-M-14 (Q9L5C7 entry or part of it): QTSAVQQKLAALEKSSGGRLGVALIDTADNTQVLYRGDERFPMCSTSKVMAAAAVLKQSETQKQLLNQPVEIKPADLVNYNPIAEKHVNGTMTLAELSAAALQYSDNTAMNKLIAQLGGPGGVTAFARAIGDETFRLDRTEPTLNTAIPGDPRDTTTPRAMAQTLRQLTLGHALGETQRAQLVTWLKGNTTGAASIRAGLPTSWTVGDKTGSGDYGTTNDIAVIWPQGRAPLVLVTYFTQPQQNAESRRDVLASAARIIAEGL
Outline: as §1

ECL1002 [6] = experiment: Aztreonam potentiation (MPC@4); format: cell-based; conditions: minimum BLI concentration inhibiting growth with 4 μg/mL aztreonam
SHV-5 ec308 [7] = format: cell-based; conditions: for TIG MPC4 SHV-5 ec308: minimum BLI concentration inhibiting growth with tigemonam at 4 μg/mL
KP1004 KPC-2 = experiment: Biapenem potentiation (MPC@1); format: cell-based; conditions: minimum BLI concentration inhibiting growth with 1 μg/mL biapenem
Method: (§2) Biapenem was present in the test medium at 1 μg/mL. […] Table 3 summarizes the BLI potency of biapenem potentiation (MPC@1) for two strains overexpressing class A (KPC) and class D (OXA-48) carbapenemases. Biapenem MIC for each strain is also shown.

OXA-48 KP1086 = experiment: Biapenem potentiation (MPC@1); format: cell-based; conditions: minimum BLI concentration inhibiting growth with 1 μg/mL biapenem
Method: as §2

CMY-6 EC1010 [8] = experiment: Aztreonam potentiation (MPC@4); format: cell-based; conditions: minimum BLI concentration inhibiting growth with 4 μg/mL aztreonam
CMY-6 EC1010 [9] = format: cell-based
CTX-M-15 KP1009 [10] = format: cell-based
CTX-M-15 KP1009 [11] = experiment: Aztreonam potentiation (MPC@4); format: cell-based; conditions: minimum BLI concentration inhibiting growth with 4 μg/mL aztreonam
[12] = Intravenous pharmacokinetics; format: in vivo; conditions: rat, plasma; rats, IV infusion over 0.5 hours, dose 10 mg/kg; read-out: Free Cl (converted)
Method: Rats (n=3 per compound) were administered by a single infusion. IV doses were infused over 0.5 hours via an indwelling femoral vein cannula. Plasma (˜0.3 mL) samples were collected from each rat at designated time points up to 24 hours. Blood samples were centrifuged within 5 min of collection at 12000 g for 5 min to obtain plasma. The plasma samples were stored at −80° C. until analyzed. Data were analyzed using WinNonlin.

TEM-10 ec302 [13] = format: cell-based; conditions: strain TEM-10 ec302, tigemonam alone

Compound	AZT MPC4 SHV-5 ec308 (SHV-5 ec308 [1])	TIG MPC4 ECL1002 (ECL1002 [2])	AZT MPC4 KPC-2 KP1004 (KPC-2 KP1004)	TIG MPC4 CTX-M-14 KP1005 (CTX-M-14 KP1005 [5])	Ki (OXA-48) [nM]	AZT MPC4 ECL1002 (ECL1002 [6])	TIG MPC4 SHV-5 ec308 (SHV-5 ec308 [7])	BPM MPC1 KP1004 KPC-2 (KP1004 KPC-2)	BPM MPC1 OXA-48 KP1086 (OXA-48 KP1086)	AZT MPC4 CMY-6 EC1010 (CMY-6 EC1010 [8])	TIG MPC4 CTX-M-15 KP1009 (CTX-M-15 KP1009 [10])	AZT MPC4 CTX-M-15 KP1009 (CTX-M-15 KP1009 [11])	other results
CNC(=O)CC(=O)N[C@H]1Cc2cccc(C(=O)O)c2OB1O [Compound 21, (R)-2-hydroxy-3-(3-(methylamino)-3-oxopropanamido)-3,4-dihydro-2H-benzo[e][1,2]oxaborinine-8-carboxylic acid]	X (MIC of less than 1 μg/mL)	X (MIC of less than 1 μg/mL)	Y (MIC of 1 μg/mL to 10 μg/mL)	Y (key: X: MIC of less than 1 μg/mL; Y: MIC of 1 μg/mL to 10 μg/mL; Z: MIC of greater than 10 μg/mL)	< 1	X (MIC of less than 1 μg/mL)	Y (MIC of 1 μg/mL to 10 μg/mL)	X (MIC of less than 1 μg/mL)	Y (MIC of 1 μg/mL to 10 μg/mL)	X (MIC of less than 1 μg/mL)	Y (key: X: MIC of less than 1 μg/mL; Y: MIC of 1 μg/mL to 10 μg/mL; Z: MIC of greater than 10 μg/mL)	X (MIC of less than 1 μg/mL)	AZT MPC4 TEM-10 ec302 (TEM-10 ec302 [3]): Y (MIC of 1 μg/mL to 10 μg/mL); AZT MPC4 CTX-M-14 KP1005 (CTX-M-14 KP1005 [4]): Y (MIC of 1 μg/mL to 10 μg/mL); Ki (KPC-2): > 10 nM; Ki (SHV-12): < 1 nM; Ki (P99): 1 to 10 nM; Ki (CTX-M-14): 1 to 10 nM; TIG MPC4 CMY-6 EC1010 (CMY-6 EC1010 [9]; minimum BLI concentration inhibiting growth with tigemonam at 4 μg/mL): X (MIC of less than 1 μg/mL)
NC(=O)CC(=O)N[C@H]1Cc2cccc(C(=O)O)c2OB1O [Compound 16, (R)-3-(3-amino-3-oxopropanamido)-2-hydroxy-3,4-dihydro-2H-benzo[e][1,2]oxaborinine-8-carboxylic acid]	X (MIC of less than 1 μg/mL)	X (MIC of less than 1 μg/mL)	Y (MIC of 1 μg/mL to 10 μg/mL)	Y (key: X: MIC of less than 1 μg/mL; Y: MIC of 1 μg/mL to 10 μg/mL; Z: MIC of greater than 10 μg/mL)	< 1	X (MIC of less than 1 μg/mL)	Y (MIC of 1 μg/mL to 10 μg/mL)	X (MIC of less than 1 μg/mL)	Y (MIC of 1 μg/mL to 10 μg/mL)	X (MIC of less than 1 μg/mL)	X (key: X: MIC of less than 1 μg/mL; Y: MIC of 1 μg/mL to 10 μg/mL; Z: MIC of greater than 10 μg/mL)	X (MIC of less than 1 μg/mL)	Ki (SHV-12; nitrocefin reporter substrate, 10 min preincubation, read-out: Ki (SHV-12, NCF)): < 1 nM; clearance [12]: 14.5 mL/min/kg
CC1(C)[C@H](NC(=O)/C(=N\OCC(=O)O)c2csc(N)n2)C(=O)N1OS(=O)(=O)O [Tigemonam, reference compound]	–	–	–	–	–	–	–	–	–	–	–	–	Tigemonam MIC (ECL1002 [2]; strain ECL1002, tigemonam alone): 32 µg/mL; Tigemonam MIC (TEM-10 ec302 [13]): >64 µg/mL; Tigemonam MIC (CTX-M-14 KP1005 [5]; strain CTX-M-14 KP1005, tigemonam alone): >64 µg/mL; Tigemonam MIC (SHV-5 ec308 [7]; strain SHV-5 ec308, tigemonam alone): >64 µg/mL; Tigemonam MIC (CMY-6 EC1010 [9]; strain CMY-6 EC1010, tigemonam alone): 16 µg/mL; Tigemonam MIC (CTX-M-15 KP1009 [10]; strain CTX-M-15 KP1009, tigemonam alone): >64 µg/mL
